Patent publication US20250170116A1, “PHARMACEUTICAL COMPOSITION FOR PREVENTING AND/OR TREATING RENAL DISEASE” (priority 2022, published 2025)

Legend:
[1] = test system: rats with puromycin aminonucleoside-induced kidney injury (focal segmental glomerulosclerosis / minimal change nephrotic syndrome model rats); assay: Test Example 1: action of Compound 011 in rats with puromycin aminonucleoside-induced kidney injury; type: in vivo, S.D. rats; conditions: for urinary protein levels lower compared with PAN group: Bradford method
Experimental: Eight-week-old S.D. rats (male, 8 rats) were intraperitoneally injected with 120 mg/kg of puromycin aminonucleoside (PAN) under anesthesia (day 0). PAN damages glomerular basement membrane cells (podocytes) and induces glomerular injury in rats. The PAN-treated rats were focal segmental glomerulosclerosis model rats and minimal change nephrotic syndrome model rats. The test compound (Compound 011) was mixed with food and administered (10 mg/kg/day) on or after the third day after the PAN injection. The rats were kept under a 12-hour light-dark cycle (lights on from 7:00 am to 7:00 pm, and lights off from 7:00 pm to 7:00 am the next morning), and food and water were provided ad libitum (PAN+011 group). Urine was collected on day 0, i.e., the day of PAN administration, and on days 3, 10, 20, and 27 after PAN administration. Urine was collected by placing the rats in metabolic cages for 17 hours (5:00 pm to 10:00 am the next morning). Separately, as controls, a group without PAN treatment and without test compound administration (control group, male, 3 animals), a group without PAN treatment but with test compound administration (control+011 group, male, 5 animals), and a group with PAN treatment but without test compound administration (PAN group, male, 9 animals) were also tested in the same manner. The urinary protein levels were measured by using the Bradford method. The serum albumin levels were measured by using an improved BCP (bromocresol purple) method. In the PAN group, the number of serum samples was 8 because one animal from which a serum sample was unable to be collected was excluded. On day 27 after PAN administration, the left kidney of each rat was removed, the size was visually observed, and the weight was measured. The number of left kidney samples of the control group was 3 because the left kidneys of three animals in this group were all removed and weighed. The number of left kidney samples of the control+011 group was 4 because the left kidneys of 4 of the 5 animals in this group were removed and weighed. The number of left kidney samples of the PAN group was 7 because the left kidneys of 7 of the 9 animals in this group were removed and weighed. The number of left kidney samples of the PAN+011 group was 7 because the left kidneys of 7 of the 8 animals in this group were removed and weighed.

[2] = test system: rats with puromycin aminonucleoside-induced kidney injury (focal segmental glomerulosclerosis model rats); assay: Test Example 3: action of Compound 011 in PAN-treated rats with more severe symptoms for a longer period; type: in vivo, S.D. rats
Experimental: The action of Compound 011 on PAN-treated rats with more severe symptoms for a longer period of time than in Test Example 1 was studied. Eight-week-old S.D. rats (male, 8 rats) were intraperitoneally injected with 120 mg/kg of puromycin aminonucleoside (PAN) under anesthesia. Then, one month later, PAN was again injected intraperitoneally at 60 mg/kg. PAN creates focal segmental glomerulosclerosis model rats by disrupting glomerular basement membrane cells (podocytes) (Kim, J Mol Med, 2018, 96, 631-644). Furthermore, these model rats are known to develop chronic kidney damage accompanied by lymphocyte and macrophage infiltration (Ornellas, Sci Rep, 2019, 9:19604). The test compound (Compound 011) was mixed with food and administered (10 mg/kg/day) on or after the third day after the PAN injection. The rats were kept under a 12-hour light-dark cycle (lights on from 7:00 am to 7:00 pm, and lights off from 7:00 pm to 7:00 am the next morning), and food and water were provided ad libitum (PAN+011 group). Chronic proteinuria may sometimes occur after the first administration of PAN without a second administration of PAN. […] Two months after the first administration of PAN, the kidneys of the rats were removed, their sizes were visually observed, and their weights were measured. The number of kidney samples was 4 for the PAN group and was 6 for the PAN+011 group. Subsequently, the kidneys were fixed with 4% paraformaldehyde/PBS and then paraffin-embedded, and sections were prepared. The sections were treated with PAS (periodic acid-Schiff) staining, and PAS-stained positive areas (inflammatory cell areas) were evaluated. To extract RNA, a portion of tissue around the surface layer of the kidney was quickly frozen to −80° C. cDNA was produced from RNA extracted from the tissue by reverse transcriptase, and gene expression was evaluated by real-time PCR. TB Green Premix Ex Taq II (Takara Bio Inc.) was used as a reagent for the reaction, and a QuantStudio 5 system (Thermo Fisher) was used for the analysis.

[3] = PAN+011 group vs PAN group, two months after PAN
[4] = PAN+011 group, after 2 months, 10 mg/kg/day mixed with food, *p<0.03

**Q.** Which results are given for `O=C(O)c1cnc(N2CCN(c3noc4cccc(C(F)(F)F)c34)CC2)c(Cl)c1` [Compound 011, 5-Chloro-6-(4-(4-(trifluoromethyl)benzo[d]isoxazol-3-yl)piperazin-1-yl)nicotinic acid]?
**A.** urinary protein levels lower compared with PAN group ([1]; PAN+011 group vs PAN group, day 10 after PAN, 10 mg/kg/day mixed with food): 38%; serum albumin levels ([1]; PAN+011 group vs PAN group, day 27, improved BCP method, **p<0.01): almost no PAN-treatment-induced decrease in serum albumin levels; left kidney weight per rat body weight ([1]; PAN+011 group vs PAN group, day 27 after PAN): smaller increase in kidney weights; urinary protein levels lower compared with PAN group ([1]; PAN+011 group vs PAN group, day 27 after PAN, 10 mg/kg/day mixed with food): 48%; urinary protein levels, control+011 group vs control group ([1]; rats without PAN treatment, 10 mg/kg/day mixed with food): No difference; CD4 expression level in kidney tissue (quantitative PCR, relative to GAPDH) [2, 3]: significantly decreased; CD86 expression level in kidney tissue (quantitative PCR, relative to GAPDH) [2, 3]: significantly decreased; TGF-β expression level in kidney tissue (quantitative PCR, relative to GAPDH) [2, 3]: significantly decreased; left kidney weight per rat body weight, decrease compared with PAN group [2, 4]: 29%; right kidney weight, decrease compared with PAN group [2, 4]: 28%; suppression of formation of tertiary lymphoid tissue-like structures (PAS-stained positive area) ([2]; kidney sections two months after PAN, on average): ≥ 50%
